Laboratory results from patent publication US20100203104A1, “DELIVERY SYSTEM FOR RISPERIDONE” (N.V. Organon, priority 2006, published 2010).

Test: Solubility of risperidone in ethylene vinyl acetate copolymer
Assay type: physicochemical
Conditions: ethylene vinyl acetate copolymer having a vinyl acetate content of 28%
Procedure: With risperidone is meant 3-[2-[4-(6-fluoro-1,2-benzisoxazol-3-yl)-1-piperidinyl]ethyl]-6,7,8,9-tetrahydro-2-methyl-4H-pyrido[1,2-a]pyrimidin-4-one. […] Solubility is measured as described in Laarhoven, J. A. H., et al. (2002), International Journal of Pharmaceutics 232, page 165.

Question: For `Cc1nc2n(c(=O)c1CCN1CCC(c3noc4cc(F)ccc34)CC1)CCCC2` [Risperidone, 3-[2-[4-(6-fluoro-1,2-benzisoxazol-3-yl)-1-piperidinyl]ethyl]-6,7,8,9-tetrahydro-2-methyl-4H-pyrido[1,2-a]pyrimidin-4-one], which “solubility in ethylene vinyl acetate copolymer” value is on record?
Answer: 0.1 wt %
